Test results from patent publication US20230278974A1, “ANTITUMORAL ASCORBIC ACID ESTERS” (SUIGENERIS FARMACOSMETICS, S.L., priority 2020, published 2023).

Test system: primary or metastatic human cancer cells from various origins (IGR39, IGR37, MW115, MW266.4, DLD1, SW480, HCT116, NUG-C4, COLO668, BXPC3, CAPAN2, RWP1)
Test: Growth inhibition of human cancer cell lines (crystal violet staining, 96 well plates)
Assay type: cell-based
Conditions: even at concentrations as low as 0.2 mM; 72 h treatment
Text: The BXPC3, CAPAN2, RWP1 cell lines from human pancreatic cancer were provided by the Biomedical Research Institute (IRB) Barcelona; the MW115 and IGR39 cell lines from human primary melanoma and MW 266.4 and IGR37 from human metastatic melanoma were provided by Dr. Manel Esteller from the Catalan Institute of Oncology (ICO) Barcelona (Vizoso M. et al., “Epigenetic activation of a cryptic TBC1D16 transcript enhances melanoma progression by targeting EGFR” Nat Med., 2015, vol 21(7), pp. 741-50); DLDL1, SW480 and HCT116 cell lines from human colon cancer were provided by Dra. Neus Agell from the Research Institute August Pi Sunyer (IDIBAPS) - University of Barcelona (UB); NUG-C4 and COLO668 cell lines from human gastric and lung cancers, respectively, were provided by the Center for Genomic Regulation (CRG) Barcelona. […]
The cells were resuspended by trypsin/EDTA digestion with 0.5% Trypsin-EDTA in the case of different human cancer cell lines, and 0.25% Trypsin-EDTA in the case of human primary endothelial cells. Once resuspended in culture medium, they were counted in Newbauer chamber after a 1:1 dilution with trypan blue. […]
The optical density values per well were obtained by a Biotek Synergy™2 multi-detection microplate reader, using a 590 nm filter and by scanning reading, obtaining the mean values per well.

How did the “inhibitory capacity on growth of cancer cells” value turn out when `CCCCCCC1CCC(CCC(=O)OC[C@H](O)[C@H]2OC(=O)C(O)=C2O)CC1` (stereo partly drawn) [Compound Ib, (S)-2-((R)-3,4-Dihydroxy-5-Oxo-2,5-Dihydrofuran-2-Yl)-2-Hydroxyethyl 3-(4-Hexylcyclohexyl)Propanoate] was run?
The value was “remarkable inhibitory capacity”.
